For this experiment, the system named is lithium-pilocarpine model of temporal lobe epilepsy. As to the kind of experiment: Neuroprotection activity using the lithium-pilocarpine model of temporal lobe epilepsy. The note with it: rats after Li-pilocarpine. It is filed as in vivo, Male Sprague-Dawley rats. As to the method: Male Sprague-Dawley rats (purchased from Orient Bio Inc. Korea) of body weight 175-230 g were used for these studies and housed 4 rats per cage for 4-5 days. On the day prior to status epilepsy (SE), rats received 127 mg/kg lithium chloride (Sigma, St. Louis, Mo., U.S.A.) intraperitoneal (i.p.). Approximately 18-20 h following this treatment, rats were given an i.p. injection of 43 mg/kg pilocarpine (Sigma). An i.p. injection of 2 mg/kg methyl-scopolamine (Sigma) was administered 30 min prior to pilocarpine to block the effects of the muscarinic agonist on peripheral cholinergic receptors. The effects of various dose compound (or example) 1, 65 and 67, dissolved in 30% Poly Ethylene Glycol 400 (Acros Organics, Geel, Belgium) were studied at 30 min after SE onset. The drugs were administered i.p. in a volume of 2 ul/g body weight. Pharmacological effects of all the test materials were evaluated to compared test groups (n=8) with a control group (n=8). Control group was administrated vehicle, only. All animals were kept for 2 weeks to look at the mortality and quantification of cell densities was performed 14 days after SE in test groups and control rats not subjected to SE. The animals were deeply anesthetized by injection lumpun plus zoletile, 7:3 (v/v) and perfused transcardially with 150 ml of ice-cold 0.01 M phosphate buffer followed by 250 ml of freshly prepared ice-cold 4% paraformaldehyde (PFA) in 0.1 M phosphate buffer, pH 7.4. The brains were removed and postfixed in the same fixative for an additional 22˜24 h at 4° C., and then transferred to 30% sucrose for cryoprotection until the samples were precipitated. Brains were frozen in methyl butane with dry ice and stored at −80° C. Serial coronal […] slices were cut in a cryostat (Microtome HM 1850, Leica, Germany) and put the sections onto the slides, and air-dried before thionine staining. Every fifth section was selected for morphometric analysis.
Neuronal density quantification was performed automatically with the MCID Elite software (Interfocus Ltd, Linton, UK) by counting the number of neurons present in a defined area of the structure of interest (dorsal hippocampus—CA1, CA3, DZ) and carried out with a microscopic enlargement of 200- or 400-fold. Countings were performed twice on each side in each region by a single observer unaware of animal's treatment and averaged. In each structure, the mean and minimal surface area of the neurons were determined in order to count only neurons and exclude glial cells with smaller cell bodies. (Ref., Jennifer François, Katuschia Germe, Arielle Ferrandon, Estelle Koning, Astrid Nehlig (2011) Carisbamate has powerful disease-modifying effects in the lithium-pilocarpine model of temporal lobe epilepsy, Neuropharmacology 61: 313˜328)
Data were expressed as mean±sem. Statistical analysis of difference between groups was evaluated by ANOVA followed by Dunnett's test or Bonferroni test as a post hoc analysis using Statistica (Statsoft, Inc., USA). Difference was considered statistically significant when the p value was less than 0.05.

Take `CC[C@H](OC(N)=O)[C@@H](O)c1ccccc1I` [Compound 67, 1-(2-iodophenyl)-(S)-1-hydroxybutyl-(S)-2-carbamate]: the survival rate reads like this: (30 mg/kg i.p. 30 min after SE onset, kept 2 weeks (FIG. 5)) 25%; (120 mg/kg i.p. 30 min after SE onset, kept 2 weeks (FIG. 5)) 100%.
Turning to `C[C@H](OC(N)=O)[C@@H](O)c1ccccc1I` [Compound 65, 1-(2-iodophenyl)-(S)-1-hydroxypropyl-(S)-2-carbamate], the survival rate by setting is: (5 mg/kg i.p. 30 min after SE onset, kept 2 weeks (FIG. 4)) 50%; (25 mg/kg i.p. 30 min after SE onset, kept 2 weeks (FIG. 4)) 62.5%; (50 mg/kg i.p. 30 min after SE onset, kept 2 weeks (FIG. 4)) 100%.

For the origin of these results see US10525030B2 (priority 2013, dated 2020).
